Measured values: patent publication US20090247404A1, “METHOD FOR IMPROVING HARVESTABILITY OF CROPS” (priority 2006, published 2009)

How the values were obtained:
Format in all cases: in vivo
[1] = system: cotton (GOSHI, Gossypium hirsutum L.); test: Test B2: field trial, preharvest application of harvest aids alone and with Compound 4 to cotton (cv. DP 117BRIIRF); conditions: for inhibition at 5 g/ha / inhibition at 10 g/ha / inhibition at 20 g/ha / inhibition at 1262 g/ha / inhibition at 421 g/ha: Gossypium hirsutum, 336 h
Protocol: A field trial was conducted to evaluate the effects of mixtures of Compound 4 with commercial harvest aids on cotton (GOSHI, Gossypium hirsutum L.). Delta and Pine Land Co. cotton seeds (cv. ‘DP 117BRIIRF’) were planted in mid spring season, 2.0-cm deep in a clay soil. Plots were 12.19 m long by 3.86 m wide with rows spaced 96.5 cm apart. The field was managed using conventional tillage practices, and applications of herbicides and insecticides were used to maintain a healthy crop. The plots were arranged in a randomized complete block design with each treatment being replicated four times. Treatments were applied preharvest over the top of the crop in late summer, when approximately 65% of the bolls had opened, using a tractor-mounted sprayer delivering a spray volume of 140.3 L/ha at a pressure of 193 kPa. Treatments consisted of the commercial harvest aids tribufos, ethephon, and ethephon+AMADS alone and in combination with Compound 4, dissolved or suspended in water. Plants were evaluated for harvest aid effects including defoliation and regrowth inhibition at 4, 7, and 14 DAA. Individual results were recorded and data reported as the means of the three replicates.
(§1) Results for Tests A, B1 and B2 are given in Table A, B1 and B2 respectively. Plants were visually evaluated for harvest aid effects of boll opening, defoliation, desiccation, and whole plant (basal and terminal) regrowth inhibition. “State of Defoliation (%)” represents a visual rating at a given DAA of the overall reduction in foliage on treated plants in a plot. It is based on a scale of 0 to 100%, where 0 represents an amount of foliage similar to control plants, and 100 indicates no leaves present. Plant regrowth assessments at a given DAA were made relative to appropriate controls after effects of defoliation were observed. Regrowth of the basal (“plant stalk”, below the top 15.3 cm of the plants) and terminal (“plant terminal”, top 15.3 cm of the plants) portions of the plants were separately evaluated on a visual rating scale of 0 to 100%, where 0 indicates no regrowth, and 100 indicates complete regrowth. The regrowth evaluations involved overall assessment of renewed or continued growth and development, which included: node and internodal development and elongation, and leaf formation, development and growth. These regrowth evaluations were recorded as “Regrowth %” and subsequently converted in the tables to “Regrowth Inhibition (%)”, which was calculated as 100%−YT, where YT equals the mean Regrowth % of three replicates for a respective treatment.

[2] = system: cotton (GOSHI, Gossypium hirsutum L.); test: Test B1: field trial, preharvest application of harvest aids alone and with Compound 4 to cotton (cv. DP 434); conditions: for inhibition at 5 g/ha / inhibition at 10 g/ha / inhibition at 20 g/ha / inhibition at 1262 g/ha / inhibition at 421 g/ha: Gossypium hirsutum
Protocol: A field trial was conducted to evaluate the effects of mixtures of Compound 4 with commercial harvest aids on cotton (GOSHI, Gossypium hirsutum L.). Delta and Pine Land Co. cotton seeds (cv. ‘DP 434’) were planted in mid spring season, 3.8-cm deep in a fine-texture loam soil comprising 40% sand, 36% silt, and 24% clay. Soil organic matter was 1.8%; pH was 6.6. Plots were 9.1 m long by 3.0 m wide with rows spaced 96.5 cm apart. Seeds were spaced 10.2 cm apart within the rows. The field was managed using conventional tillage practices, and applications of herbicides and insecticides were used to maintain a healthy crop. The plots were arranged in a randomized complete block design with each treatment being replicated four times. Treatments were applied preharvest over the top of the crop in late summer, when approximately 65% of the bolls had opened, using a tractor-mounted sprayer delivering a spray volume of 140 L/ha at a pressure of 241 kPa. Treatments consisted of the commercial harvest aids tribufos, ethephon, and ethephon+AMADS alone and in combination with Compound 4, dissolved or suspended in water. Plants were evaluated for harvest aid effects including defoliation and regrowth inhibition at 4, 7, 14, and/or 22 days after application (DAA). Individual results were recorded and data reported as the means of the three replicates.
as §1

[3] = system: cotton (GOSHI, Gossypium hirsutum L.); test: Test A: field trial, preharvest application of harvest aids alone and with Compound 4 to cotton (cv. Fibermax FM 989 RR); conditions: for Boll Opening (%) / Desiccation (%) / State of Defoliation (%): 841 g a.i./ha
Protocol: A field trial was conducted to evaluate the effects of mixtures of Compound 4 with commercial harvest aids on cotton (GOSHI, Gossypium hirsutum L.). Cotton seeds (cv. ‘Fibermax FM 989 RR’) were planted in mid spring season, 3.8 cm deep in a clay soil having 1.8% organic matter and a pH of 6.8. Plots were 9 m long by 3 m wide with rows spaced 96.5 cm apart. Seeds were spaced 10.2 cm apart within the rows. The field was managed using conventional tillage practices, and applications of herbicides and insecticides were used to maintain a healthy crop. The plots were arranged in a randomized complete block design with each treatment being replicated three times. Treatments were applied preharvest over the top of the crop in late summer, when approximately 65% of the bolls had opened, using a backpack sprayer delivering a spray volume of 140 L/ha using a pressure of 276 kPa. Treatments consisted of the commercial harvest aids tribufos and ethephon+AMADS alone and in combination with Compound 4, dissolved or suspended in water. The effects on the treated plants and untreated controls were recorded 4, 11 and 21 days after application. Plants were visually evaluated for harvest aid effects of boll opening, defoliation, desiccation, and whole plant (basal and terminal) regrowth inhibition. Results were calculated as the mean of the three replicates, based on a scale of 0 to 100 where 0 is no effect and 100 is complete expression of the effect.
as §1

[4] = plant terminal and plant stalk, 14 DAA
[5] = treatments including Compound 4

## COC(=O)c1nc(C2CC2)nc(N)c1Cl [Compound 4, methyl 6-amino-5-chloro-2-cyclopropyl-4-pyrimidinecarboxylate]
[1]; 5 g a.i./ha, 4 DAA
  State of Defoliation (%): 3%
[1]; 5 g a.i./ha, 7 DAA
  State of Defoliation (%): 4%
[1]; 5 g a.i./ha, 14 DAA
  State of Defoliation (%): 10%
[1]; 10 g a.i./ha, 4 DAA
  State of Defoliation (%): 3%
[1]; 10 g a.i./ha, 7 DAA
  State of Defoliation (%): 4%
[1]; 10 g a.i./ha, 14 DAA
  State of Defoliation (%): 11%
[1]; 20 g a.i./ha, 4 DAA
  State of Defoliation (%): 4%
[1]; 20 g a.i./ha, 7 DAA
  State of Defoliation (%): 9%
[1]; 20 g a.i./ha, 14 DAA
  State of Defoliation (%): 15%
[1]; 5 g a.i./ha, 14 DAA, read-out: Plant Stalk (Below 15.3-cm) Regrowth Inhibition (%)
  inhibition at 5 g/ha: 100%
[1]; 5 g a.i./ha, 14 DAA, read-out: Plant Terminal (Top 15.3-cm) Regrowth Inhibition (%)
  inhibition at 5 g/ha: 97%
[1]; 10 g a.i./ha, 14 DAA, read-out: Plant Stalk (Below 15.3-cm) Regrowth Inhibition (%)
  inhibition at 10 g/ha: 100%
[1]; 10 g a.i./ha, 14 DAA, read-out: Plant Terminal (Top 15.3-cm) Regrowth Inhibition (%)
  inhibition at 10 g/ha: 100%
[1]; 20 g a.i./ha, 14 DAA, read-out: Plant Stalk (Below 15.3-cm) Regrowth Inhibition (%)
  inhibition at 20 g/ha: 100%
[1]; 20 g a.i./ha, 14 DAA, read-out: Plant Terminal (Top 15.3-cm) Regrowth Inhibition (%)
  inhibition at 20 g/ha: 100%
[1]; [4]
  regrowth inhibition, addition of Compound 4 compared to ethephon, ethephon+AMADS or tribufos alone: dramatically increased
[1]; [5]
  inhibition of basal and terminal regrowth: effective for inhibiting both basal and terminal regrowth
[2]; 5 g a.i./ha, 4 DAA
  State of Defoliation (%): 13%
[2]; 5 g a.i./ha, 7 DAA
  State of Defoliation (%): 18%
[2]; 5 g a.i./ha, 14 DAA
  State of Defoliation (%): 23%
[2]; 10 g a.i./ha, 4 DAA
  State of Defoliation (%): 8%
[2]; 10 g a.i./ha, 7 DAA
  State of Defoliation (%): 18%
[2]; 10 g a.i./ha, 14 DAA
  State of Defoliation (%): 21%
[2]; 20 g a.i./ha, 4 DAA
  State of Defoliation (%): 13%
[2]; 20 g a.i./ha, 7 DAA
  State of Defoliation (%): 24%
[2]; 20 g a.i./ha, 14 DAA
  State of Defoliation (%): 23%
[2]; 336 h, 5 g a.i./ha, 14 DAA, read-out: Plant Stalk (Below 15.3-cm) Regrowth Inhibition (%)
  inhibition at 5 g/ha: 100%
[2]; 336 h, 5 g a.i./ha, 14 DAA, read-out: Plant Terminal (Top 15.3-cm) Regrowth Inhibition (%)
  inhibition at 5 g/ha: 100%
[2]; 336 h, 10 g a.i./ha, 14 DAA, read-out: Plant Stalk (Below 15.3-cm) Regrowth Inhibition (%)
  inhibition at 10 g/ha: 100%
[2]; 336 h, 10 g a.i./ha, 14 DAA, read-out: Plant Terminal (Top 15.3-cm) Regrowth Inhibition (%)
  inhibition at 10 g/ha: 100%
[2]; 336 h, 20 g a.i./ha, 14 DAA, read-out: Plant Stalk (Below 15.3-cm) Regrowth Inhibition (%)
  inhibition at 20 g/ha: 100%
[2]; 336 h, 20 g a.i./ha, 14 DAA, read-out: Plant Terminal (Top 15.3-cm) Regrowth Inhibition (%)
  inhibition at 20 g/ha: 100%
[2]; 528 h, 5 g a.i./ha, 22 DAA, read-out: Plant Stalk (Below 15.3-cm) Regrowth Inhibition (%)
  inhibition at 5 g/ha: 100%
[2]; 528 h, 10 g a.i./ha, 22 DAA, read-out: Plant Stalk (Below 15.3-cm) Regrowth Inhibition (%)
  inhibition at 10 g/ha: 100%
[2]; 528 h, 20 g a.i./ha, 22 DAA, read-out: Plant Stalk (Below 15.3-cm) Regrowth Inhibition (%)
  inhibition at 20 g/ha: 100%
[2]; [4]
  regrowth inhibition, addition of Compound 4 compared to ethephon, ethephon+AMADS or tribufos alone: dramatically increased
[2]; [5]
  inhibition of basal and terminal regrowth: effective for inhibiting both basal and terminal regrowth
[3]; 11 days after application
  desiccation, combination with Compound 4 compared to ethephon+AMADS or tribufos alone: increased
[3]; 21 days after application
  defoliation, combination with Compound 4 compared to ethephon+AMADS or tribufos alone: dramatically increased
  regrowth inhibition, combination with Compound 4 compared to ethephon+AMADS or tribufos alone: dramatically increased
[3]; compared to the untreated plants
  boll opening effects of the commercial harvest aids in combination with Compound 4: did not interfere
[3]; [5]
  inhibition of basal and terminal regrowth: effective for inhibiting both basal and terminal regrowth

## O=P(O)(O)CCCl [Ethephon, reference compound]
[1]; 1262 g a.i./ha, 4 DAA
  State of Defoliation (%): 58%
[1]; 1262 g a.i./ha, 7 DAA
  State of Defoliation (%): 63%
[1]; 1262 g a.i./ha, 14 DAA
  State of Defoliation (%): 48%
[1]; 1262 g a.i./ha, 14 DAA, read-out: Plant Stalk (Below 15.3-cm) Regrowth Inhibition (%)
  inhibition at 1262 g/ha: 80%
[1]; 1262 g a.i./ha, 14 DAA, read-out: Plant Terminal (Top 15.3-cm) Regrowth Inhibition (%)
  inhibition at 1262 g/ha: 60%
[2]; 1262 g a.i./ha, 4 DAA
  State of Defoliation (%): 54%
[2]; 1262 g a.i./ha, 7 DAA
  State of Defoliation (%): 73%
[2]; 1262 g a.i./ha, 14 DAA
  State of Defoliation (%): 79%
[2]; 336 h, 1262 g a.i./ha, 14 DAA, read-out: Plant Stalk (Below 15.3-cm) Regrowth Inhibition (%)
  inhibition at 1262 g/ha: 90%
[2]; 336 h, 1262 g a.i./ha, 14 DAA, read-out: Plant Terminal (Top 15.3-cm) Regrowth Inhibition (%)
  inhibition at 1262 g/ha: 75%
[2]; 528 h, 1262 g a.i./ha, 22 DAA, read-out: Plant Stalk (Below 15.3-cm) Regrowth Inhibition (%)
  inhibition at 1262 g/ha: 22%

## CCCCSP(=O)(SCCCC)SCCCC [Tribufos, S,S,S-tributylphosphorotrithioate, reference compound]
[1]; 421 g a.i./ha, 4 DAA
  State of Defoliation (%): 50%
[1]; 421 g a.i./ha, 7 DAA
  State of Defoliation (%): 56%
[1]; 421 g a.i./ha, 14 DAA
  State of Defoliation (%): 53%
[1]; read-out: Plant Stalk (Below 15.3-cm) Regrowth Inhibition (%)
  inhibition at 421 g/ha: 81%
[1]; read-out: Plant Terminal (Top 15.3-cm) Regrowth Inhibition (%)
  inhibition at 421 g/ha: 44%
[2]; 421 g a.i./ha, 4 DAA
  State of Defoliation (%): 49%
[2]; 421 g a.i./ha, 7 DAA
  State of Defoliation (%): 76%
[2]; 421 g a.i./ha, 14 DAA
  State of Defoliation (%): 81%
[2]; 336 h, read-out: Plant Stalk (Below 15.3-cm) Regrowth Inhibition (%)
  inhibition at 421 g/ha: 84%
[2]; 336 h, read-out: Plant Terminal (Top 15.3-cm) Regrowth Inhibition (%)
  inhibition at 421 g/ha: 47%
[2]; 528 h, read-out: Plant Stalk (Below 15.3-cm) Regrowth Inhibition (%)
  inhibition at 421 g/ha: 29%
[3]; 4 DAA
  Boll Opening (%): 70%
  Desiccation (%): 32%
  State of Defoliation (%): 68%
[3]; 11 DAA
  Boll Opening (%): 78%
  Desiccation (%): 8%
  State of Defoliation (%): 80%
[3]; 21 DAA
  State of Defoliation (%): 35%
[3]; Gossypium hirsutum, 504 h, read-out: Regrowth Inhibition (%)
  inhibition at 841 g/ha: 25%
